In patent US12077537B2 (Gilead Sciences, Inc., priority 2020, dated 2024):

Tested on: HIV-IIIb
Experiment: Antiviral assay in MT4 cells
Type: cell-based
Conditions: Human immunodeficiency virus 1, MT4, 120 h; MT-4 cells mixed with HIV-IIIb at m.o.i. 0.003; 5 days at 37° C.; CellTiter-Glo luminescence; 50% decrease in signal, a measure of HIV-1 replication
How it was run: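 Compound, tested at ten 3-fold dilutions in quadruplicate in 10% FBS medium, received MT-4 cells pre-mixed 1 hour with HIV-IIIb (m.o.i. 0.003). Protection was read as luminescent cell viability (CellTiter-Glo) after 5 days' culture at 37° C.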

EC50: 0.342 µM
Structure (SMILES): Cn1nc(NS(C)(=O)=O)c2cccc(-c3cc4sc(NC5CNC(=O)C5)nc4nc3C(Cc3cc(F)cc(F)c3)NC(=O)Cn3nc(C(F)(F)F)c4c3C(F)(F)[C@@H]3C[C@H]43)c21 (stereo partly drawn) [Example 128, 2-((3bS,4aR)-5,5-difluoro-3-(trifluoromethyl)-3b,4,4a,5-tetrahydro-1H-cyclopropa[3,4]cyclopenta[1,2-c]pyrazol-1-yl)-N-(2-(3,5-difluorophenyl)-1-(6-(1-methyl-3-(methylsulfonamido)-1H-indazol-7-yl)-2-((5-oxopyrrolidin-3-yl)amino)thiazolo[4,5-b]pyridin-5-yl)ethyl)acetamide]
